IC50 data for 23 compounds are collected here from patent publication US20120245137A1 (Zalicus Pharmaceuticals Ltd., priority 2009, published 2012).

For assay [1], the target named is human α1G T-type channels (Homo sapiens, UniProt O43497). The assay is described as follows: T-type calcium channel block, whole cell patch clamp, α1G. To be noted: HEK cells stably expressing human α1G; mainly non-inactivated protocol; values above 10,000 nM represented as 10000. It is filed as cell-based. Here is the method:
T-type calcium channel blocking activity was assayed in human embryonic kidneycells, HEK 293 (Invitrogen), stably transfected with the T-type calcium channel subunits. Briefly, cells were cultured in Dulbecco's modified eagle medium (DMEM) supplemented with 10% fetal bovine serum, 200 U/ml penicillin, and 0.2 mg/mL streptomycin at 37° C. with 5% CO2. At 85% confluency, cells were split with 0.25% trypsin/1 mM EDTA and plated at 10% confluency on glass coverslips. At 12 hours, the medium was replaced, and the cells stably transfected using a standard calcium phosphate protocol and the appropriate calcium channel cDNA's. Fresh DMEM was supplied, and the cells transferred to 28° C./5% CO2.
Standard patch-clamp techniques were employed to identify blockers of T-type currents. Briefly, previously described HEK cell lines stably expressing human α1G, α1H, and α1I T-type channels were used for all the recordings (passage #: 4-20, 37° C., 5% CO2). Whole cell patch clamp experiments were performed using an Axopatch 200B amplifier (Axon Instruments, Burlingame, Calif.) linked to a personal computer equipped with pCLAMP software. Data were analyzed using Clampfit (Axon Instruments) and SigmaPlot 4.0 (Jandel Scientific). To obtain T-type currents, plastic dishes containing semi-confluent cells were positioned on the stage of a ZEISS AXIOVERT S100 microscope after replacing the culture medium with external solution (Table 2). Whole-cell patches were obtained using pipettes (borosilicate glass with filament, O.D.: 1.5 mm, I.D.: 0.86 mm, 10 cm length), fabricated on a SUTTER P-97 puller with resistance values of ˜5 MΩ (Table 3).
T-type currents were reliably obtained by using two voltage protocols: • “non-inactivating,” and • “inactivation.”
Test compounds were dissolved in external solution, 0.1-0.01% DMSO. After ˜10 minutes rest, they were applied by gravity close to the cell using a WPI microfil tubing. The “non-inactivated” pre-pulse was used to examine the resting block of a compound. The “inactivated” protocol was employed to study voltage-dependent block.

Assay [2] has as its target N-type calcium channel subunits (α1B, α2δ, and β3a) (Homo sapiens, UniProt Q00975). Nature of the assay: Block of Cav2.2 channel, whole cell voltage clamp, manual and PatchXpress. It is filed as cell-based. Conditions: Table 5; table follows Assay Example 3 (whole cell voltage clamp / PatchXpress); assay not given. Put shortly: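 Percent block taken as current amplitude ratio with versus without compound, applied in rising doses; IC50 fitted where one cell received multiple doses. Protocol: 50 ms pulses to +20 mV at 0.067 Hz from […] or −90 mV holding; P/n leak subtraction, no junction-potential correction; manual and PatchXpress recordings.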

Sequence of human α1G T-type channels (O43497 whole entry): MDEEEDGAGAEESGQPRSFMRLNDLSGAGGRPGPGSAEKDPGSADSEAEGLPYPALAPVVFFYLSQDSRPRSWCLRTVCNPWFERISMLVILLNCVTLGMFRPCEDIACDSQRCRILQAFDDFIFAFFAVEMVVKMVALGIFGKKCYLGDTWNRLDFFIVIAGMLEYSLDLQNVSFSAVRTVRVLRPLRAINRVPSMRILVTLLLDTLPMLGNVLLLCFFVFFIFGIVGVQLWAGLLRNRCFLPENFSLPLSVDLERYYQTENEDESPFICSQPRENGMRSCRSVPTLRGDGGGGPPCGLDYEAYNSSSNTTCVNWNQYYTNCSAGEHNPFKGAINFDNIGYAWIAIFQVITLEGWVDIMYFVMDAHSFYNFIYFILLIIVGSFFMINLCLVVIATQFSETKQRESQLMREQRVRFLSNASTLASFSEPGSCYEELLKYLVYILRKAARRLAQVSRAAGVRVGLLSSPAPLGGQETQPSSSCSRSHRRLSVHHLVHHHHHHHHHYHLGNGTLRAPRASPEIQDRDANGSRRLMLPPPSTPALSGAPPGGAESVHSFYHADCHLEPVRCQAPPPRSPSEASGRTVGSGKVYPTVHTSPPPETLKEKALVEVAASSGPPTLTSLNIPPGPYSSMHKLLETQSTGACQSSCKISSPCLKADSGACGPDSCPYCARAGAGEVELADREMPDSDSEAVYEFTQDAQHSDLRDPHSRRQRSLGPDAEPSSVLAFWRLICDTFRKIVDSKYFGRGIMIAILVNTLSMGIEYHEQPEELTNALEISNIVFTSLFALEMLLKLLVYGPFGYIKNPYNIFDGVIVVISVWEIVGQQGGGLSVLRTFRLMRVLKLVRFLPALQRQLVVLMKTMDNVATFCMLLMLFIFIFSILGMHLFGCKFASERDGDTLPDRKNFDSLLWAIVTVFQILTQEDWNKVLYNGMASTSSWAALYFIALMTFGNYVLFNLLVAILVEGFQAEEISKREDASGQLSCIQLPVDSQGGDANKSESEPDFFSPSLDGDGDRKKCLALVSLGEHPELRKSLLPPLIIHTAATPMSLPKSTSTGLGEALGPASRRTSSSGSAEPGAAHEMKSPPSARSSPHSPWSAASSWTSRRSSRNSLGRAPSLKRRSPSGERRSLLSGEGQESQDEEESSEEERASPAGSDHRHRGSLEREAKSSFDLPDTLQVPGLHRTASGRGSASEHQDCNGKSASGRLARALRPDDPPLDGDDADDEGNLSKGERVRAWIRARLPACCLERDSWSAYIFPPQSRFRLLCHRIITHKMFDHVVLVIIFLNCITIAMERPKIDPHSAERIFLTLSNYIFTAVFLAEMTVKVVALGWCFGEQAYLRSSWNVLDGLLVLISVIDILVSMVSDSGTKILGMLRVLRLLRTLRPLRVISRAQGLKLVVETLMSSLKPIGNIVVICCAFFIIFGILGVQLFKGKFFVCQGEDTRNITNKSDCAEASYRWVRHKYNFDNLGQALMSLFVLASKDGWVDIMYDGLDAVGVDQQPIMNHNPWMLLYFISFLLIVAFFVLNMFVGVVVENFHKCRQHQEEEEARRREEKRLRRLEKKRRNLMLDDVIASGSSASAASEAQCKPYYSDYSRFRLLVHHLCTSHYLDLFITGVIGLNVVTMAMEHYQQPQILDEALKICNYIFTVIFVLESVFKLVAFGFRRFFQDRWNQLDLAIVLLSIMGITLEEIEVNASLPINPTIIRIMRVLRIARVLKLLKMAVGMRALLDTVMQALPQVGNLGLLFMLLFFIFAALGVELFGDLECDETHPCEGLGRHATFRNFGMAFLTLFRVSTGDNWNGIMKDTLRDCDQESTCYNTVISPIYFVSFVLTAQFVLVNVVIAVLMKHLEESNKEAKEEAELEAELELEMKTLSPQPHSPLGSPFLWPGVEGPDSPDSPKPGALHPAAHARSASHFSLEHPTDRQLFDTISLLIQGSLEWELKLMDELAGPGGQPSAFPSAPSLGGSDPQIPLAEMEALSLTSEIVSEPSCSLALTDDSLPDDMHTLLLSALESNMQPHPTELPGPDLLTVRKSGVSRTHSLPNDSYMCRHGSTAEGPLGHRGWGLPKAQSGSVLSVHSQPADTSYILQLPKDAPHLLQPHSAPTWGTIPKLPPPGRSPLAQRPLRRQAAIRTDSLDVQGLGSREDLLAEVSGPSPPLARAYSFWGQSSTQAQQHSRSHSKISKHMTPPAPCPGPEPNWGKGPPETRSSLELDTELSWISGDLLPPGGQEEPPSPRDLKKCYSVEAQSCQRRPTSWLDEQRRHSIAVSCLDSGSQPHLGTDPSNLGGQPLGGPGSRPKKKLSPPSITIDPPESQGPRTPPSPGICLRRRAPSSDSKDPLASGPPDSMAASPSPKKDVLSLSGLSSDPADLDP

With “4-(trifluoromethyl)-N-((1R,4R)-4- ((3- (trifluoromethyl)phenylsulfonyl) methyl)cyclohexyl)picolinamide [Compound 103]”, the values for the IC50 in assay [1] and in assay [2] were over 10000 nM and 460 nM, respectively.
For `Cn1nc(C(F)(F)F)cc1C(=O)NCC1(C)CCC(F)(S(=O)(=O)c2cccc(C(F)(F)F)c2)CC1` (stereo not drawn) [Compound 151, N-((4-fluoro-1-methyl-4-(3-(trifluoromethyl)phenylsulfonyl)cyclohexyl)methyl)-l-methyl-3-(trifluoromethyl)-1H-pyrazole-5-carboxamide], in that order: 2900 nM and 580 nM.
The matching figures for `CC1(CNC(=O)c2ccc(C(F)(F)F)cn2)CCC(F)(S(=O)(=O)c2cccc(C(F)(F)F)c2)CC1` (stereo not shown) [Compound 152, N-((4-fluoro-1-methyl-4-(3-(trifluoromethyl)phenylsulfonyl)cyclohexyl)methyl)-5-(trifluoromethyl)picolinamide]: 3600 nM and 550 nM.
For `CC1(CNC(=O)c2ccc(F)c(Cl)c2)CCC(F)(S(=O)(=O)c2cccc(C(F)(F)F)c2)CC1` (stereo not shown) [Compound 153, 3-chloro-4-fluoro-N-((4-fluoro-1-methyl-4-(3-(trifluoromethyl)phenylsulfonyl)cyclohexyl)methyl)benzamide], in that order: 5230 nM and 500 nM.
As to `CC1(CNC(=O)c2cc(F)cc(Cl)c2)CCC(F)(S(=O)(=O)c2cccc(C(F)(F)F)c2)CC1` (stereo not shown) [Compound 154, 3-chloro-5-fluoro-N-((4-fluoro-1-methyl-4-(3-(trifluoromethyl)phenylsulfonyl)cyclohexyl)methyl)benzamide], the figures for the half-inhibitory concentration (IC50) in assay [1] and in assay [2] were 3600 nM and 450 nM, respectively.
In the case of `CC1(CNC(=O)c2ccc(C(F)(F)F)cc2S(C)(=O)=O)CCC(F)(S(=O)(=O)c2cccc(C(F)(F)F)c2)CC1` (stereo not shown) [Compound 155, N-((4-fluoro-1-methyl-4-(3-(trifluoromethyl)phenylsulfonyl)cyclohexyl)methyl)-2-(methylsulfonyl)-4-(trifluoromethyl)benzamide], the IC50 in assay [1] worked out at 960 nM; in assay [2], 540 nM.
The matching figures for `CN(CC(=O)N[C@H]1CC[C@H](CS(=O)(=O)c2cccc(C(F)(F)F)c2)CC1)C1CCCCC1` [Compound 163]: over 10000 nM and 470 nM.
The matching figures for `CC1(CNC(=O)c2ccc(C(F)(F)F)nc2)CCC(S(=O)(=O)c2cccc(C(F)(F)F)c2)CC1` (stereo not shown) [Compound 213, N-((1-methyl-4-(3-(trifluoromethyl)phenylsulfonyl)cyclohexyl)methyl)-6-(trifluoromethyl)nicotinamide]: 940 nM and 620 nM.
For `O=S(=O)(c1cccc(C(F)(F)F)c1)[C@H]1C[C@H](c2c[nH]c(-c3ccc(C(F)(F)F)cc3)n2)C1` [Compound 443, 2-(4-(trifluoromethyl)phenyl)-4-((1R,3R)-3-(3-(trifluoromethyl)phenylsulfonyI)cyclobutyl)-1H-imidazole], the IC50 in assay [2] was found to be 440 nM.
Still for that read-out and setting: the figure for `O=S(=O)(c1cccc(C(F)(F)F)c1)[C@H]1C[C@H](c2c[nH]c(-c3ccc(OC(F)(F)F)cc3)n2)C1` [Compound 444, 2-(4-(trifluoromethoxy)phenyl)-4-((1R,3R)-3-(3-(trifluoromethyl)phenylsulfonyl)cyclobutyl)-1H-imidazole] is 290 nM.
The same measure, in the same setting: the same measure for `O=S(=O)(c1cccc(C(F)(F)F)c1)[C@H]1C[C@H](c2c[nH]c(-c3ccc(C(F)(F)F)nc3)n2)C1` [Compound 445, 2-(trifluoromethyl)-5-(4-((1R,3R)-3-(3-(trifluoromethyl)phenylsulfonyl)cyclobutyl)-1H-imidazol-2-yl)pyridine]: 200 nM; for `O=S(=O)(c1cccc(C(F)(F)F)c1)[C@H]1C[C@@H](c2c[nH]c(-c3ccc(C(F)(F)F)nc3)n2)C1` [Compound 446, 2-(trifluoromethyl)-5-(4-((1S,3S)-3-(3-(trifluoromethyl)phenylsulfonyl)cyclobutyl)-1H-imidazoI-2-yl)pyridine]: 810 nM.
On the same count and under the same terms, the figure for `CC(C)(C)c1nc([C@H]2C[C@@H](S(=O)(=O)c3cccc(C(F)(F)F)c3)C2)c[nH]1` [Compound 447, 2-tert-butyl-4-((1S,3S)-3-(3-(trifluoromethyl)phenylsulfonyl)cyclobutyl)-1H-imidazole] is 1830 nM.
Consider `CC(C)(C)c1nc([C@H]2C[C@H](S(=O)(=O)c3cccc(C(F)(F)F)c3)C2)c[nH]1` [Compound 448, 2-tert-butyl-4-((1R,3R)-3-(3-(trifluoromethyl)phenylsulfonyl)cyclobutyl)-1H-imidazole], for which the IC50 in assay [2] is 2110 nM.
Consider `Cc1cccc(C(=O)NCC(C)(C)S(=O)(=O)c2cccc(C(F)(F)F)c2)n1` [Compound 485, 6-methyl-N-(2-methyl-2-(3-(trifluoromethyl)phenylsulfonyl)propyl) picolinamide], for which the IC50 in assay [1] amounted to 710 nM.
The same measure, in the same setting: the figure for `CC(C)(CNS(=O)(=O)c1cccc2nonc12)S(=O)(=O)c1cccc(C(F)(F)F)c1` [Compound 493] is 680 nM.
On to `CC(C)(CNS(=O)(=O)c1ccc(S(C)(=O)=O)cc1)S(=O)(=O)c1cccc(C(F)(F)F)c1` [Compound 497, N-(2-methyl-2-(3-(trifluoromethyl)phenylsulfonyl)propyl)-4-(methylsulfonyl) benzenesulfonamide], for which, in assay [1], the half-maximal inhibitory concentration (IC50) is 520 nM.
Still for that read-out and setting: the same measure for `CN(CCC(C)(C)S(=O)(=O)c1cccc(C(F)(F)F)c1)C(=O)c1ccc(C(F)(F)F)cc1S(C)(=O)=O` [Compound 508, N-methyl-N-(3-methyl-3-(3-(trifluoromethyl)phenylsulfonyl)butyl)-2-(methylsulfonyl)-4-(trifluoromethyl)benzamide]: 850 nM; for `CN(CCC(C)(C)S(=O)(=O)c1cccc(C(F)(F)F)c1)C(=O)c1cc(C(F)(F)F)nn1C` [Compound 509, N,1-dimethyl-N-(3-methyl-3-(3-(trifluoromethyl)phenylsulfonyl)butyl)-3-(trifluoromethyl)-1H-pyrazole-5-carboxamide]: 650 nM; for `CN(CCC(C)(C)S(=O)(=O)c1cccc(C(F)(F)F)c1)C(=O)c1ccc(C(F)(F)F)nc1` [Compound 511, N-methyl-N-(3-methyl-3-(3-(trifluoromethyl)phenylsulfonyl)butyl)-6-(trifluoromethyl)nicotinamide]: 960 nM.
On the same count and under the same terms, the same measure for `CN(CCC(C)(C)S(=O)(=O)c1cccc(C(F)(F)F)c1)C(=O)c1ccc(C(F)(F)F)cn1` [Compound 515, N-methyl-N-(3-methyl-3-(3-(trifluoromethyl)phenylsulfonyl)bulyl)-5-(trifluoromethyl)picolinamide]: 610 nM; for `CC(C)(CCNC(=O)c1cc(S(C)(=O)=O)ccc1Cl)S(=O)(=O)c1cccc(C(F)(F)F)c1` [Compound 530, 2-chloro-N-(3-methyl-3-(3-(trifluoromethyl)phenylsulfonyl)butyl)-5-(methylsulfonyl)benzamide]: 940 nM; for `CC(C)(CCNC(=O)c1ccnc(C(F)(F)F)n1)S(=O)(=O)c1cc(F)cc(C(F)(F)F)c1` [Compound 534, N-(3-(3-fluoro-5-(trifluoromethyl)phenylsulfonyl)-3-methylbutyl)-2-(trifluoromethyl)pyrimidine-4-carboxamide]: 830 nM.
